Reference: ChEMBL document CHEMBL5726153, “Benzimidazole derivatives as kinase inhibitors” (2019)
“And” between values parts separate entries of the source, which are not always exact repeats. Identical values can stand only once.

Biological target: Voltage-gated inwardly rectifying potassium channel KCNH2 (Homo sapiens, UniProt Q12809)
Assay: Determination of a Possible Activity on hERG: The hERG (human ether-A-go-go-related gene) channel corresponds to an important anti-target for potential new drugs since its inhibition may lead to sudden death. In order to establish whether the compounds of the present invention act on hERG, the following experiment was carried out.The in vitro effects of the compounds indicated in Table 5 on the …
Type: cell-based

Voltage-gated inwardly rectifying potassium channel KCNH2, sequence (Q12809 whole entry): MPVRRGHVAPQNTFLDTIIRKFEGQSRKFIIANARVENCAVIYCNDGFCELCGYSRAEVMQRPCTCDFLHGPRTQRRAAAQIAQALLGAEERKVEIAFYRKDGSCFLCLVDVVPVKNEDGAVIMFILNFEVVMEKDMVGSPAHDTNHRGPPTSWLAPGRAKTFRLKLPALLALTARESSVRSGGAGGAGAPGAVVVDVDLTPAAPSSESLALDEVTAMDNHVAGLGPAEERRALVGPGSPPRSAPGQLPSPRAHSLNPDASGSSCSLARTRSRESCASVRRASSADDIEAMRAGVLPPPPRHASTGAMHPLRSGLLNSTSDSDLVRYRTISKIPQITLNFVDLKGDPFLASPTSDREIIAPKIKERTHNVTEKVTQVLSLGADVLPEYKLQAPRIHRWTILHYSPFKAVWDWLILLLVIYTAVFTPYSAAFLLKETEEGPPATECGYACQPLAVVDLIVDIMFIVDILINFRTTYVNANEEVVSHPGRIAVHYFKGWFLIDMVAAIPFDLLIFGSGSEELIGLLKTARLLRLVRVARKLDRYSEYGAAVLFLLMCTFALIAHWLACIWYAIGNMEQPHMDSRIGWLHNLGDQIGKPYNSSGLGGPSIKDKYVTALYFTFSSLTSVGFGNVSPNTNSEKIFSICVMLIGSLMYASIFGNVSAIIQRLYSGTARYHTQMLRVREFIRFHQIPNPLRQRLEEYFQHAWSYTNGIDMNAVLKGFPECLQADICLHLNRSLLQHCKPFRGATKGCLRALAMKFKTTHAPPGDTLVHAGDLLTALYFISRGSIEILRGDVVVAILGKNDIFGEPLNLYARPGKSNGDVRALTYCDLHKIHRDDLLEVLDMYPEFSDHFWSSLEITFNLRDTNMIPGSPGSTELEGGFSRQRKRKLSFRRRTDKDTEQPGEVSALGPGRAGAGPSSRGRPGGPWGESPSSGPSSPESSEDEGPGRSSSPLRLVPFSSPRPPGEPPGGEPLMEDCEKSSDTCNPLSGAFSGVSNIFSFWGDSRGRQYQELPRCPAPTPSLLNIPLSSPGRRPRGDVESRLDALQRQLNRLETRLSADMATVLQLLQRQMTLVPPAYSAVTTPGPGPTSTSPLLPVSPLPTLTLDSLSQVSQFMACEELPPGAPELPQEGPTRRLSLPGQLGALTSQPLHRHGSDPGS

Row | SMILES | IC50
1 | CCn1c(N2CCNCC2)nc2c([N+](=O)[O-])c(Br)c(Br)cc21 | 16.9 µM
2 | CCn1c(N2CCNC(=O)C2)nc2c([N+](=O)[O-])c(Br)c(Br)cc21 | 1.78 µM and 11.9 µM
